Measurements as given in patent US20050244328A1 (priority 2002, published 2005).
“And” between values parts separate entries of the source, which are not always exact repeats. Equal entries are not always repeated. Where two headings read alike, the source gives them in different places.

How the values were obtained:
[1] = test system: Penicillum expansum (mould); conditions: cited from earlier work
Mysid shrimp = test: In-house mysid shrimp acute bioassay of treated effluent; conditions: for surviving Mysid shrimp DAY 1 (bowls A, B) / surviving Mysid shrimp DAY 2 (bowls A, B) / surviving Mysid shrimp DAY 3 (bowls A, B) / surviving Mysid shrimp DAY 4 (bowls A, B): 10 initial per bowl, set up Aug. 20, 2002
Pediococcus Damnosus = conditions: cited from earlier work
Pseudomonas aeruginosa = conditions: 1 ppm of ClO2; contact time 60 s; cited from earlier work
Menidia beryllina = test: 96-hour bioassay of ClO2 treated side stream effluent, Independent Bioassay Laboratory A, silverside minnow; type: in vivo; conditions: end of 96-hour test period; ClO2 treated side stream effluent grabs Sep. 3, 2001 12:00, 18:00, 24:00, Sep. 4, 2001 06:00
From the text: Mysidopsis bahia (Mysids) and Menidia beryllina (Silversides) were subjected to ClO2 treated effluent in these tests. Adequate volumes of chemical were brought to the site to conduct a dosing of the side stream for a 24-hour period. During this period, 2 gallons of treated water were taken at 6-hour intervals, preserved on ice and shipped to an independent bioassay laboratory (designated Independent Bioassay Laboratory A).
Table 3(c) illustrates the survivability of the organisms at the 96-hour end-point in the test for each of the 4 samples taken (samples indicated by date and time each sample was taken.).

[2] = test system: Pectinatus cervisiiphilus; conditions: 0.1 ppm of ClO2; contact time 5 min; cited from earlier work
M. bahia = test: Bioassay of ClO2 treated WWTP 2 effluent by Laboratory 4, mysid shrimp; type: in vivo, Mysidopsis bahia; conditions: grabs Aug. 28, 2002 10:15, 16:00, 22:00, Aug. 29, 2002 09:30
From the text: (§1) With the success of the above bioassay series that began on Aug. 20, 2002, it was concluded that a third party test was needed to verify research data. Water grabs from the Anastasia Island Treatment Facility, taken on Aug. 28, 2002, were delivered to Laboratory 4, an independent bioassay laboratory. Additional testing of the water sent to Laboratory 4 labs was also forwarded to another contract lab to document the water quality during the sample periods for the bioassays. It should be noted here that the plant was operating under their normal operating conditions and accepting both landfill leachate as well as septic tank and portable toilet waste. These were however pumped into a storage tank and then trickled into the influent stream at the headworks.
(§2) The complete toxicological study as reference is included as attachment at the end of this study.
(§3) With the successful bioassay conducted by the Laboratory 4 labs, a second series of water samples was taken for the repeat bioassay. These samples were taken on Sep. 11, 2002 and forwarded to Laboratory 4 labs on Sep. 12, 2002 to conduct the bioassay. The results of this test for both the water quality toxicity and the bioassay are illustrated in the Tables 13, 14 and 15.
(§4) The complete toxicological results are provided at the end of this study as attachments.

Fecal Coliform = test: Fecal coliform counts in effluent, full-scale pilot and baseline at WWTP 2
Eschericia Coli = conditions: cited from earlier work
M. beryllina = test: Bioassay of ClO2 treated WWTP 2 effluent by Laboratory 4, silverside minnow; type: in vivo, Menidia beryllina; conditions: for Sample survival % of M. berylina: grabs Sep. 11, 2002 10:00, 15:30, 22:00, Sep. 12, 2002 10:00
From the text: as §1, §2, §3, §4

[3] = test system: Saccharomyces diastaticus (yeast); conditions: cited from earlier work

Chlorine dioxide [ClO2]
Inactivation in % ([1]; 0.5 ppm of ClO2, contact time 60 min): 99.99%
Inactivation in % ([1]; 2 ppm of ClO2, contact time 20 min): 99.999%
survival rate of Mysid Shrimp 24 HR (Mysid shrimp; 0.64 PPM DOSE, 25% solution): 100
survival rate of Mysid Shrimp 48 HR (Mysid shrimp; 0.64 PPM DOSE, 25% solution): 100
survival rate of Mysid Shrimp 72 HR (Mysid shrimp; 0.64 PPM DOSE, 25% solution): 90
survival rate of Mysid Shrimp 96 HR (Mysid shrimp; 0.64 PPM DOSE, 25% solution): 90
surviving Mysid shrimp DAY 1 (bowls A, B) (Mysid shrimp; 0.64 PPM DOSE, 25% solution): 10
surviving Mysid shrimp DAY 2 (bowls A, B) (Mysid shrimp; 0.64 PPM DOSE, 25% solution): 10
surviving Mysid shrimp DAY 3 (bowls A, B) (Mysid shrimp; 0.64 PPM DOSE, 25% solution): 9
surviving Mysid shrimp DAY 4 (bowls A, B) (Mysid shrimp; 0.64 PPM DOSE, 25% solution): 9
survival rate of Mysid Shrimp 24 HR (Mysid shrimp; 0.64 PPM DOSE, 50% solution): 100
survival rate of Mysid Shrimp 48 HR (Mysid shrimp; 0.64 PPM DOSE, 50% solution): 100
survival rate of Mysid Shrimp 72 HR (Mysid shrimp; 0.64 PPM DOSE, 50% solution): 100
survival rate of Mysid Shrimp 96 HR (Mysid shrimp; 0.64 PPM DOSE, 50% solution): 100
surviving Mysid shrimp DAY 1 (bowls A, B) (Mysid shrimp; 0.64 PPM DOSE, 50% solution): 10
surviving Mysid shrimp DAY 2 (bowls A, B) (Mysid shrimp; 0.64 PPM DOSE, 50% solution): 10
surviving Mysid shrimp DAY 3 (bowls A, B) (Mysid shrimp; 0.64 PPM DOSE, 50% solution): 10
surviving Mysid shrimp DAY 4 (bowls A, B) (Mysid shrimp; 0.64 PPM DOSE, 50% solution): 10
survival rate of Mysid Shrimp 24 HR (Mysid shrimp; 0.64 PPM DOSE, 75% solution): 100
survival rate of Mysid Shrimp 48 HR (Mysid shrimp; 0.64 PPM DOSE, 75% solution): 100
survival rate of Mysid Shrimp 72 HR (Mysid shrimp; 0.64 PPM DOSE, 75% solution): 95
survival rate of Mysid Shrimp 96 HR (Mysid shrimp; 0.64 PPM DOSE, 75% solution): 90
surviving Mysid shrimp DAY 1 (bowls A, B) (Mysid shrimp; 0.64 PPM DOSE, 75% solution): 10
surviving Mysid shrimp DAY 2 (bowls A, B) (Mysid shrimp; 0.64 PPM DOSE, 75% solution): 10
surviving Mysid shrimp DAY 3 (bowls A, B) (Mysid shrimp; 0.64 PPM DOSE, 75% solution): 9 and 10
surviving Mysid shrimp DAY 4 (bowls A, B) (Mysid shrimp; 0.64 PPM DOSE, 75% solution): 8 and 10
survival rate of Mysid Shrimp 24 HR (Mysid shrimp; 0.64 PPM DOSE, 100% solution): 100
survival rate of Mysid Shrimp 48 HR (Mysid shrimp; 0.64 PPM DOSE, 100% solution): 100
survival rate of Mysid Shrimp 72 HR (Mysid shrimp; 0.64 PPM DOSE, 100% solution): 85
survival rate of Mysid Shrimp 96 HR (Mysid shrimp; 0.64 PPM DOSE, 100% solution): 70
surviving Mysid shrimp DAY 1 (bowls A, B) (Mysid shrimp; 0.64 PPM DOSE, 100% solution): 10
surviving Mysid shrimp DAY 2 (bowls A, B) (Mysid shrimp; 0.64 PPM DOSE, 100% solution): 10
surviving Mysid shrimp DAY 3 (bowls A, B) (Mysid shrimp; 0.64 PPM DOSE, 100% solution): 7 and 10
surviving Mysid shrimp DAY 4 (bowls A, B) (Mysid shrimp; 0.64 PPM DOSE, 100% solution): 5 and 9
survival rate of Mysid Shrimp 24 HR (Mysid shrimp; 1.05 PPM DOSE, 25% solution): 100
survival rate of Mysid Shrimp 48 HR (Mysid shrimp; 1.05 PPM DOSE, 25% solution): 100
survival rate of Mysid Shrimp 72 HR (Mysid shrimp; 1.05 PPM DOSE, 25% solution): 100
survival rate of Mysid Shrimp 96 HR (Mysid shrimp; 1.05 PPM DOSE, 25% solution): 100
surviving Mysid shrimp DAY 1 (bowls A, B) (Mysid shrimp; 1.05 PPM DOSE, 25% solution): 10
surviving Mysid shrimp DAY 2 (bowls A, B) (Mysid shrimp; 1.05 PPM DOSE, 25% solution): 10
surviving Mysid shrimp DAY 3 (bowls A, B) (Mysid shrimp; 1.05 PPM DOSE, 25% solution): 10
surviving Mysid shrimp DAY 4 (bowls A, B) (Mysid shrimp; 1.05 PPM DOSE, 25% solution): 10
survival rate of Mysid Shrimp 24 HR (Mysid shrimp; 1.05 PPM DOSE, 50% solution): 100
survival rate of Mysid Shrimp 48 HR (Mysid shrimp; 1.05 PPM DOSE, 50% solution): 100
survival rate of Mysid Shrimp 72 HR (Mysid shrimp; 1.05 PPM DOSE, 50% solution): 95
survival rate of Mysid Shrimp 96 HR (Mysid shrimp; 1.05 PPM DOSE, 50% solution): 95
surviving Mysid shrimp DAY 1 (bowls A, B) (Mysid shrimp; 1.05 PPM DOSE, 50% solution): 10
surviving Mysid shrimp DAY 2 (bowls A, B) (Mysid shrimp; 1.05 PPM DOSE, 50% solution): 10
surviving Mysid shrimp DAY 3 (bowls A, B) (Mysid shrimp; 1.05 PPM DOSE, 50% solution): 10 and 9
surviving Mysid shrimp DAY 4 (bowls A, B) (Mysid shrimp; 1.05 PPM DOSE, 50% solution): 9 and 10
survival rate of Mysid Shrimp 24 HR (Mysid shrimp; 1.05 PPM DOSE, 75% solution): 100
survival rate of Mysid Shrimp 48 HR (Mysid shrimp; 1.05 PPM DOSE, 75% solution): 100
survival rate of Mysid Shrimp 72 HR (Mysid shrimp; 1.05 PPM DOSE, 75% solution): 100
survival rate of Mysid Shrimp 96 HR (Mysid shrimp; 1.05 PPM DOSE, 75% solution): 95
surviving Mysid shrimp DAY 1 (bowls A, B) (Mysid shrimp; 1.05 PPM DOSE, 75% solution): 10
surviving Mysid shrimp DAY 2 (bowls A, B) (Mysid shrimp; 1.05 PPM DOSE, 75% solution): 10
surviving Mysid shrimp DAY 3 (bowls A, B) (Mysid shrimp; 1.05 PPM DOSE, 75% solution): 10
surviving Mysid shrimp DAY 4 (bowls A, B) (Mysid shrimp; 1.05 PPM DOSE, 75% solution): 10 and 9
survival rate of Mysid Shrimp 24 HR (Mysid shrimp; 1.05 PPM DOSE, 100% solution): 100
survival rate of Mysid Shrimp 48 HR (Mysid shrimp; 1.05 PPM DOSE, 100% solution): 100
survival rate of Mysid Shrimp 72 HR (Mysid shrimp; 1.05 PPM DOSE, 100% solution): 90
survival rate of Mysid Shrimp 96 HR (Mysid shrimp; 1.05 PPM DOSE, 100% solution): 70
surviving Mysid shrimp DAY 1 (bowls A, B) (Mysid shrimp; 1.05 PPM DOSE, 100% solution): 10
surviving Mysid shrimp DAY 2 (bowls A, B) (Mysid shrimp; 1.05 PPM DOSE, 100% solution): 10 and 9
surviving Mysid shrimp DAY 3 (bowls A, B) (Mysid shrimp; 1.05 PPM DOSE, 100% solution): 8 and 10
surviving Mysid shrimp DAY 4 (bowls A, B) (Mysid shrimp; 1.05 PPM DOSE, 100% solution): 6 and 8
No. of surviving shrimp DAY 2 (Mysid shrimp; 100% effluent, 10 shrimp per bowl, set up Aug. 13, 2002, ClO2 samples 14:00 and 15:00, bowls A, B, landfill leachate slug in plant): 10 and 9 and 6
AVG (% survival of bowls A and B) (Mysid shrimp; 100% effluent, set up Aug. 13, 2002, ClO2 samples 14:00 and 15:00): 40%
mysid shrimp bioassay outcome (Mysid shrimp; side stream, after adjustments to the chlorine dioxide generator (weaker hypochlorite solution)): successful (acceptable end-point survival)
Inactivation in % (Pediococcus Damnosus; 0.15 ppm of ClO2, contact time 20 min): 99.99%
Inactivation in % (Pediococcus Damnosus; 0.3 ppm of ClO2, contact time 5 min): 99.99%
Inactivation in % (Pediococcus Damnosus; 1 ppm of ClO2, contact time 5 min): 99.999%
Inactivation in % (Pseudomonas aeruginosa): >99.999%
Percent Survival m. beryllina (Menidia beryllina): 95% and 100%
Inactivation in % [2]: 99.9%
Sample survival % of M. bahia (M. bahia; 6.25 % Effluent): 100%
Sample survival % of M. bahia (M. bahia; 12.5 % Effluent): 95% and 100%
Sample survival % of M. bahia (M. bahia; 25 % Effluent): 100%
Sample survival % of M. bahia (M. bahia; 50 % Effluent): 95% and 100%
Sample survival % of M. bahia (M. bahia; 100 % Effluent): 100%
FECAL (Fecal Coliform; 13:00, 1.2 PPM DOSE RATE, sample point 1, 19 Aug. 2002): 6
FC (fecal) (Fecal Coliform; 15:00, 0.91 PPM DOSE, sample point 4, 19 Aug. 2002): 15
FECAL (Fecal Coliform; 15:45, 1.05 PPM DOSE RATE, sample point 4, 19 Aug. 2002): 26
FECAL (Fecal Coliform; WWTP 2 effluent 28-Aug, CL2SO2 at 8:30, CLO2 at 10:15): 45
Inactivation in % (Eschericia Coli; 0.15 ppm of ClO2, contact time 300 s): 99.9%
Inactivation in % (Eschericia Coli; 0.25 ppm of ClO2, contact time 60 s): >99.999%
Sample survival % of M. berylina (M. beryllina; 6.25 % Effluent): 100%
Sample survival % of M. berylina (M. beryllina; 12.5 % Effluent): 100%
Sample survival % of M. berylina (M. beryllina; 25 % Effluent): 100% and 95%
Sample survival % of M. berylina (M. beryllina; 50 % Effluent): 95% and 100%
Sample survival % of M. berylina (M. beryllina; 100 % Effluent): 95% and 100%
M. beryllina % survival (M. beryllina; ClO2 treated effluent grabs Aug. 28, 2002 10:15, 16:00, 22:00, Aug. 29, 2002 09:30): 100%
Inactivation in % ([3]; 0.15 ppm of ClO2, contact time 10 min): 99.9%
Inactivation in % ([3]; 0.5 ppm of ClO2, contact time 10 min): >99.999%
Inactivation in % ([3]; 1 ppm of ClO2, contact time 1 min): >99.999%
